This is an account of results in article PMC11487390, “Design and Synthesis of 1,3-Diarylpyrazoles and Investigation of Their Cytotoxicity and Antiparasitic Profile” (International Journal of Molecular Sciences, 2024).

Data set [1] can be described thus: Cytotoxicity assay, MRC-5SV2 cells, resazurin, 3 days. In kind it is cell-based. The following applies: human, MRC-5 cells, highest concentration 64 µM. Here is the method: The series of final products (13–69) was investigated in vitro on the human fetal lung fibroblast cell line MRC-5 (Table 1) to assess cytotoxicity toward normal (i.e., non-malignant) human cells. […] As explained earlier, these are important pathogens for humans or cattle (T. b. brucei) and a persistent need for new therapeutics exists for these parasites. As a part of the antiparasitic tests, cytotoxicity against primary mouse macrophages (PMMs) was also evaluated. These murine cells serve as host cells for parasites in the L. infantum assay. Therefore, the murine macrophage assay not only offers additional cytotoxicological insight but is also essential to interpreting the readout of the L. infantum assay.
(§1) The MRC-5SV2 human lung fibroblast cell line was cultured in MEM + Earle’s salts-medium, supplemented with 2 mM L-glutamine, 16.5 mM NaHCO3, and 5% inactivated fetal calf serum. For evaluating the antileishmanial activity, the L. infantum MHOM/MA(BE)/67 strain was used. This strain was maintained in a Golden hamster (Mesocricetus auratus). Amastigotes were collected from the spleen of an infected donor hamster using differential centrifugation. Primary peritoneal mouse macrophages were used as host cells and were collected 2 days after peritoneal stimulation with a 2% potato starch suspension. For the intracellular T. cruzi assays, the Tulahuen CL2 strain was used that expresses β-galactosidase. The strain was maintained in MRC-5SV2 cells in MEM medium. The T. b. brucei Squib 427 strain or T. b. rhodesiense STIB-900 strain was used for screening against the extracellular African trypanosomes. The strains were maintained in Hirumi’s Modified Iscove’s medium-9 (HMI-9), supplemented with 10% inactivated fetal calf serum. All cultures and assays were performed at 37 °C with 5% CO2.
(§2) Compound stock solutions were prepared in 100% DMSO at 20 mM. The compounds were serially pre-diluted by robotic plate production (4-fold) in DMSO followed by a further (intermediate) dilution in demineralized water to assure a final in-test DMSO concentration of <1%. Identical test plates containing 10 µL of the different concentrations of each compound were produced for the different assays. For the cytotoxicity assays, 5 concentrations per compound were tested (64–16–4–1–0.25 µM). For the parasitic assays, 10 concentrations per compound were tested, ranging from 64 µM to 0.2 nM.
Assays were performed in sterile 96-well microtiter plates, each well containing 10 µL of the watery compound dilutions together with 190 µL of MRC-5SV2 inoculum (1.5 × 10^5 cells/mL). Cell growth was compared to untreated control wells (100% cell growth) and medium-control wells (0% cell growth). After 3 days incubation, MRC-5 viability was assessed fluorimetrically after addition of 50 μL resazurin per well (final concentration of 10 µg mL^−1). After 4 h at 37 °C, fluorescence was measured (λex 550 nm, λem 590 nm). The results were expressed as % reduction in cell growth/viability compared to positive (100% growth–0% inhibition) and negative (0% growth–100% inhibition) control wells from which EC50 values (50% effective concentrations) were derived using an excel macro that calculates the interpolation of the concentrations corresponding to the flanking points, just above and just below 50% inhibition.

Data set [2] relates to L. infantum MHOM/MA(BE)/67 strain. Nature of the data set: L. infantum intracellular amastigote assay in PMM (Giemsa, 5 days). In kind it is cell-based, Leishmania infantum. The settings on record: Leishmania infantum, 120 h, amastigotes in PMM, 5 days; read-out: L. inf. (EC50). Here is the method: as §1, §2
Primary peritoneal mouse macrophages (PMMs) were prepared in RPMI-1640 medium, supplemented with 2 mM L-glutamine, 16.5 mM NaHCO3, and 5% inactivated fetal calf serum. The macrophages are infected after 48 h with spleen-derived L. infantum amastigotes (3 × 10^4 PMM + 4.5 × 10^5 parasites/well). The compounds were added after 2 h of infection. After 5 days incubation, parasite burdens (mean number of amastigotes/macrophage) were assessed microscopically after staining with a 10% Giemsa solution and EC50 values were calculated.

Data set [3] relates to Trypanosoma cruzi Tulahuen CL2 strain. Nature of the data set: Intracellular T. cruzi assay in MRC-5 cells (β-galactosidase/CPRG, 7 days). In kind it is cell-based. The following applies: Trypanosoma cruzi, TULAHUEN, MRC5, 168 h, intracellular in MRC-5 cells. The protocol: as §1, §2
MRC-5 cells were infected in 96-well plates using a harvested T. cruzi inoculum (4 × 10^3 MRC-5 cells/well + 4 × 10^4 parasites/well) and exposed to 10 µL of the compound dilutions (200 µL/well total volume). Parasite growth determined after 7 days of incubation and compared to untreated infected controls following the addition of the substrate CPRG (chlorophenolred ß-D-galactopyranoside): 50 µL/well of a stock solution containing 15.2 mg CPRG + 250 µL Nonidet in 100 mL PBS. The absorbance was measured spectrophotometrically at 540 nm after 4 h incubation at 37 °C and EC50 values were calculated.

Data set [4] has as its system T. b. rhodesiense STIB-900 strain. Kind of data set: T. b. rhodesiense growth assay (resazurin, 3 days). The class given is cell-based, Trypanosoma brucei rhodesiense. The following applies: Trypanosoma brucei, RHODESIENSE, 72 h, 3 days; read-out: T. b. rhod. (EC50). Here is the method:
as §1, §2
(§3) Parasite suspensions (1.5 × 10^4 T. b. brucei/well or 4 × 10^3 T. b. rhodesiense/well) in HMI-9 medium were exposed in a total volume of 200 µL to 10 µL of the compound dilutions Parasite growth was assessed fluorimetrically after 3 days of incubation by the addition of 50 µL resazurin per well. After 6 h (T. b. rhodesiense) or 24 h (T. b. brucei) at 37 °C, fluorescence was measured (λex 550 nm, λem 590 nm), from which viability and EC50 values could be determined.

Data set [5] has as its system T. b. brucei Squib 427 strain. Kind of data set: T. b. brucei growth assay (resazurin, 3 days). The class given is cell-based, Trypanosoma brucei brucei. The settings on record: Trypanosoma brucei, 72 h, 3 days; read-out: T. b. bruc. (EC50). Here is the method:
as §1, §2, §3

Where [6] appears, read: MRC-5SV2 human lung fibroblast cells.

Each structure is given as a SMILES string. Counter-ions that a name gives are not always drawn.

`CN1CCN(CCNCc2cn(-c3ccccc3)nc2-c2ccc3c(c2)OCCO3)CC1` [Compound 27, N-((3-(2,3-dihydrobenzo[b][1,4]dioxin-6-yl)-1-phenyl-1H-pyrazol-4-yl)methyl)-2-(4-methylpiperazin-1-yl)ethan-1-amine trihydrochloride] registered an EC50 at 3 days in data set [1] (setting [6]) of 6.94 µM.

`Fc1ccc(CNCc2cn(-c3ccccc3)nc2-c2ccc3c(c2)OCO3)cc1` [Compound 55, 1-(3-(benzo[d] [1,3]dioxol-5-yl)-1-phenyl-1H-pyrazol-4-yl)-N-(4-fluorobenzyl)methanamine hydrochloride]: in data set [1] (setting [6]), the EC50 at 3 days turned out to be 1 µM.

Consider `Clc1ccc(Cc2cn(-c3ccccc3)nc2-c2ccc3c(c2)OCCO3)cc1` [Compound 50, 4-(4-chlorobenzyl)-3-(2,3-dihydrobenzo[b][1,4]dioxin-6-yl)-1-phenyl-1H-pyrazole], for which the concentration for a half-maximal effect (EC50) in data set [2] stood at 12.7 µM; in data set [3] it was 7.53 µM; in data set [4], 8.52 µM; in data set [5], 27.2 µM. In data set [1] (setting [6]), the EC50 at 3 days was > 64 µM.

Consider `COc1ccc(-c2nn(-c3ccccc3)cc2COCc2ccc(F)cc2)cc1` [Compound 68, 4-(((4-fluorobenzyl)oxy)methyl)-3-(4-methoxyphenyl)-1-phenyl-1H-pyrazole], for which the EC50 in data set [2] amounted to 36.8 µM; in data set [3], 5.33 µM; in data set [4], 11.4 µM; in data set [5], 29.6 µM. The EC50 at 3 days in data set [1] (setting [6]) was > 64 µM.

As to `c1ccc(-n2cc(CNCCc3ccncc3)c(-c3ccc4c(c3)OCO4)n2)cc1` [Compound 57, N-((3-(benzo[d] [1,3]dioxol-5-yl)-1-phenyl-1H-pyrazol-4-yl)methyl)-2-(pyridin-4-yl)ethan-1-amine hydrochloride], a half-maximal effect in data set [1] (setting [6]) (EC50 at 3 days) was put at 4 µM.

For the compound `Fc1ccc(CNCc2cn(-c3ccccc3)nc2-c2ccc3c(c2)OCCO3)cc1` [Compound 16, 1-(3-(2,3-dihydrobenzo[b][1,4]dioxin-6-yl)-1-phenyl-1H-pyrazol-4-yl)-N-(4-fluorobenzyl)methanamine hydrochloride], in data set [1] (setting [6]), the EC50 at 3 days was found to be 6.65 µM.

For the compound `Fc1ccc(Cc2cn(-c3ccccc3)nc2-c2ccc3c(c2)OCCO3)cc1` [Compound 51, 3-(2,3-dihydrobenzo[b][1,4]dioxin-6-yl)-4-(4-fluorobenzyl)-1-phenyl-1H-pyrazole], the 50% effective concentration (EC50) at 3 days in data set [1] (setting [6]) is > 64 µM.

Compound `c1ccc(-n2cc(CN3CCCC3)c(-c3ccc4c(c3)OCCO4)n2)cc1` [Compound 23, 3-(2,3-dihydrobenzo[b][1,4]dioxin-6-yl)-1-phenyl-4-(pyrrolidin-1-ylmethyl)-1H-pyrazole oxalate] came in with an EC50 at 3 days in data set [1] (setting [6]) of 18.2 µM.

Take `c1ccc(CNCc2cn(-c3ccccc3)nc2-c2ccc3c(c2)OCCO3)cc1` [Compound 15, N-benzyl-1-(3-(2,3-dihydrobenzo[b][1,4]dioxin-6-yl)-1-phenyl-1H-pyrazol-4-yl)methanamine hydrochloride]: in data set [1] (setting [6]), the midpoint of the response, the EC50 at 3 days, lay at 5.42 µM.

In data set [1] (setting [6]), `c1ccc(-n2cc(CNCCN3CCOCC3)c(-c3ccc4c(c3)OCO4)n2)cc1` [Compound 61, N-((3-(benzo[d] [1,3]dioxol-5-yl)-1-phenyl-1H-pyrazol-4-yl)methyl)-2-morpholinoethan-1-amine dihydrochloride] yielded an EC50 at 3 days of 17.1 µM.

In data set [1] (setting [6]), `c1ccc(-n2cc(CNCCc3cccnc3)c(-c3ccc4c(c3)OCCO4)n2)cc1` [Compound 20, N-((3-(2,3-dihydrobenzo[b][1,4]dioxin-6-yl)-1-phenyl-1H-pyrazol-4-yl)methyl)-2-(pyridin-3-yl)ethan-1-amine hydrochloride] gave an EC50 at 3 days of 8.95 µM.

Turning to `Fc1ccc(CCNCc2cn(-c3ccccc3)nc2-c2ccc3c(c2)OCO3)cc1` [Compound 56, N-((3-(benzo[d] [1,3]dioxol-5-yl)-1-phenyl-1H-pyrazol-4-yl)methyl)-2-(4-fluorophenyl)ethan-1-amine hydrochloride], the EC50 at 3 days in data set [1] amounted to 6.65 µM.

The compound `COc1ccc(-c2nn(-c3ccccc3)cc2CNCCc2ccc(F)cc2)cc1OC` [Compound 67, N-((3-(3,4-dimethoxyphenyl)-1-phenyl-1H-pyrazol-4-yl)methyl)-2-(4-fluorophenyl)ethan-1-amine hydrochloride] came in with an EC50 at 3 days in data set [1] (setting [6]) of 1.22 µM.

For `CN1CCN(Cc2cn(-c3ccccc3)nc2-c2ccc3c(c2)OCCO3)CC1` [Compound 24, 1-((3-(2,3-dihydrobenzo[b][1,4]dioxin-6-yl)-1-phenyl-1H-pyrazol-4-yl)methyl)-4-methylpiperazine], in data set [1] (setting [6]), the EC50 at 3 days was found to be 18.2 µM.

For the compound `c1ccc(CCNCc2cn(-c3ccccc3)nc2-c2ccc3c(c2)OCCO3)cc1` [Compound 17, N-((3-(2,3-dihydrobenzo[b][1,4]dioxin-6-yl)-1-phenyl-1H-pyrazol-4-yl)methyl)-2-phenylethan-1-amine hydrochloride], in data set [1] (setting [6]), the EC50 at 3 days stood at 0.56 µM.

The compound `COc1ccc(-c2nn(-c3ccccc3)cc2CNCCc2cccnc2)cc1` [Compound 63, N-((3-(4-methoxyphenyl)-1-phenyl-1H-pyrazol-4-yl)methyl)-2-(pyridin-3-yl)ethan-1-amine hydrochloride] yielded an EC50 at 3 days in data set [1] (setting [6]) of 16.4 µM.

`O=C(Nc1ccccc1)c1cn(-c2ccccc2)nc1-c1ccc2c(c1)OCCO2` [Compound 30, 3-(2,3-dihydrobenzo[b][1,4]dioxin-6-yl)-N,1-diphenyl-1H-pyrazole-4-carboxamide] had an EC50 at 3 days in data set [1] (setting [6]) of 9.19 µM.

The compound `CN1CCN(CCNC(=O)c2cn(-c3ccccc3)nc2-c2ccc3c(c2)OCCO3)CC1` [Compound 43, 3-(2,3-dihydrobenzo[b][1,4]dioxin-6-yl)-N-(2-(4-methylpiperazin-1-yl)ethyl)-1-phenyl-1H-pyrazole-4-carboxamide] gave a 50% effective concentration (EC50) at 3 days in data set [1] (setting [6]) of 19 µM.

`COc1ccc(-c2nn(-c3ccccc3)cc2CNCCc2ccncc2)cc1` [Compound 62, N-((3-(4-methoxyphenyl)-1-phenyl-1H-pyrazol-4-yl)methyl)-2-(pyridin-4-yl)ethan-1-amine hydrochloride] showed an EC50 at 3 days in data set [1] (setting [6]) of 9.66 µM.

In turn, `c1ccc(-n2cc(CNCCc3cccnc3)c(-c3ccc4c(c3)OCO4)n2)cc1` [Compound 58, N-((3-(benzo[d] [1,3]dioxol-5-yl)-1-phenyl-1H-pyrazol-4-yl)methyl)-2-(pyridin-3-yl)ethan-1-amine hydrochloride] came in with an EC50 at 3 days in data set [1] (setting [6]) of 19.4 µM.
